Patent US12679878B2, “CRF2 receptor agonists and their use in therapy” (SANOFI, priority 2020, dated 2026)
Starred links: 1 amine or outer side, 2 acyl side, 3 side chain; linkers in the order of their positions; H or OH if unused. Residues, ends and D or L forms follow the SMILES beside them. Groups on a side chain read outwards from the residue. *: point of attachment. γGlu = O=C(O)[C@H](CCC(=O)[*:2])N[*:1]; Palmitoyl = CCCCCCCCCCCCCCCC(=O)*

What was measured:
human CRF2α receptor = molecular target: T1, human CRF2α receptor (Homo sapiens, UniProt Q13324); assay: cAMP agonism at human CRF2 α receptor in TeloHEAC cells (Example 7); type: cell-based; conditions: cAMP HTRF, TeloHEAC cells stably expressing human CRF2 α, 0% HSA; read-out: EC50 [nM], 0% HSA
T1 construct: expressed in transfected cells; host or cells: TeloHEAC
T1 sequence (Q13324 1-411): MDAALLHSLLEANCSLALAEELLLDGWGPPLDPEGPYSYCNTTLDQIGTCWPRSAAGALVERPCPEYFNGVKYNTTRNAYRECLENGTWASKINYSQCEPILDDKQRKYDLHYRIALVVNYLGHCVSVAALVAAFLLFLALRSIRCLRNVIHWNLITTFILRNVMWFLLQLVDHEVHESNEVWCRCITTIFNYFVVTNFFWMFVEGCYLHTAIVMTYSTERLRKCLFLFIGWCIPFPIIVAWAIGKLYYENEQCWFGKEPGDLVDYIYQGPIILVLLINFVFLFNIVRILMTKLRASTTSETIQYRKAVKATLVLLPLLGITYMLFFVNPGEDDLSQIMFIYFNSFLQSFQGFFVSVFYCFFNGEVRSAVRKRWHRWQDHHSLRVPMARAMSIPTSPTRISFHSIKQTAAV
Procedure, shortened: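 Thawed frozen stably transfected cells in HBSS/20 mM HEPES (0% or 0.1% HSA) plus 2 mM IBMX were exposed to compound at 2000 cells/well for 30 min at room temperature. Intracellular cAMP was read by HTRF (665/620 nm ratio) after 1 h lysis; EC50 was derived with 1000 nM urocortin 2 set as 100%.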

recombinant human CRF2 = molecular target: T2, recombinant human CRF2 (Homo sapiens, UniProt Q13324); assay: CRF2a (h) agonist radioligand binding, [125]sauvagine, HEK cell membranes (Example 11); conditions: competition with [125]sauvagine 0.1 nM
T2 construct: expressed in transfected cells; host or cells: HEK
T2 sequence (Q13324 1-411): T1 sequence (Q13324 1-411)
Method: Receptor binding of the compounds was assessed using a CRF2a (h) (agonist radioligand) assay.
HEK cells expressing recombinant human CRF2 were used as a source of receptor for membrane preparation.
IC50 values (concentration causing a half-maximal inhibition of control specific binding) and Hill coefficients (nH) were determined by non-linear regression analysis of the competition curves generated with mean replicate values using Hill equation curve fitting. The inhibition constants (Ki) were calculated using the Cheng Prusoff equation [Ki=IC50/(1+L/KD) where L is the concentration of radioligand in the assay, and KD is the affinity of the radioligand for the receptor). A Scatchard plot was used to determine the KD.

[1] = Solubility in buffer systems by UPLC-UV (Example 13); type: physicochemical; conditions: pH 7.4, Solubility in Buffer C [mg/ml]
Procedure, shortened: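 The supernatant was diluted 1:10 and quantified by UPLC-UV peak area against a reference standard curve, correcting for sequence-based extinction coefficients.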

- EC50 (human CRF2α receptor): 0.02 nM
- nH (Hill coefficient) (recombinant human CRF2): 1.5
- solubility at 1 h [1]: > 10.7 mg/mL
Compound: CCCCCCCCCCCCCCCC(=O)N[C@@H](CCC(=O)NCCCC[C@H](NC(=O)[C@H](CC(C)C)NC(=O)[C@H](CCCCN)NC(=O)[C@@H](NC(=O)[C@@H]1CCCN1C(=O)[C@@H](NC(=O)[C@H](CC(=O)O)NC(=O)[C@H](CC(C)C)NC(=O)[C@H](CO)NC(=O)[C@H](CC(C)C)NC(=O)[C@@H](NC(=O)[C@@H](N)[C@@H](C)CC)C(C)C)C(C)C)[C@@H](C)CC)C(=O)N[C@@H](CCCCN)C(=O)N[C@H](C(=O)N[C@@H](CC(C)C)C(=O)N[C@@H](CC(C)C)C(=O)N[C@@H](CCC(=O)O)C(=O)N[C@@H](CCC(N)=O)C(=O)N[C@@H](CCC(=O)O)C(=O)N[C@@H](CCCCN)C(=O)N[C@@H](CCC(N)=O)C(=O)N[C@@H](CCCCN)C(=O)N[C@@H](CCCCN)C(=O)N[C@@H](CCC(N)=O)C(=O)N[C@@H](CCCNC(=N)N)C(=O)N[C@@H](CCC(=O)O)C(=O)N[C@@H](CCC(N)=O)C(=O)N[C@@H](C)C(=O)N[C@@H](CCC(=O)O)C(=O)N[C@H](C(=O)N[C@@H](CC(N)=O)C(=O)N[C@@H](CCCCN)C(=O)N[C@@H](CCC(N)=O)C(=O)N[C@H](C(=O)N[C@@H](CC(C)C)C(=O)N[C@@H](C)C(=O)N[C@@H](CCC(N)=O)C(=O)N[C@H](C(N)=O)C(C)C)[C@@H](C)CC)[C@@H](C)O)[C@@H](C)CC)C(=O)O [compound 17] (H-IVLSLDVPIKLK([γGlu-Palmitoyl])KILLEQEKQKKQREQAETNKQILAQV-NH2; N-terminus assumed)
